Article PMC11721293 (JCI Insight, 2025)
Several values for one entry are separate records, joined by “and”; a condition that tells them apart may be missing. Equal entries are not always repeated. Where two headings read alike, the source gives them in different places.

Legend:
Format in all cases: cell-based
[1] = test system: VSV-SARS-CoV-2-S pseudovirus; experiment: microbe, parasite or virus in culture; conditions: for EC50: Pseudovirus
SARS-CoV-2-nLUC [2] = experiment: microbe, parasite or virus in culture; conditions: for viral inhibition (EC50 curve data): Huh7A2T2, log[Lonafarnib]; for Replication: LNF
[3] = test system: SARS-CoV-2 (Wuhan strain); conditions: replicates
SARS-CoV-2 [4] = conditions: for percentage genome copy number relative to DMSO: 48 h, replicates
SARS-CoV-2 [5] = experiment: Virus-induced cytopathic effect (CPE) in VeroE6
SARS-CoV-2-nLUC [6] = conditions: Nirmatrelvir 0 uM
SARS-CoV-2-nLUC [7] = conditions: Nirmatrelvir 0 uM, sheet S3B, replicates
SARS-CoV-2 Wuhan = conditions: VeroE6, 10 μM LNF, 24 h, DMSO = 100%
[8] = test system: SARS-CoV-2 BA.1 (Omicron); conditions: VeroE6, 10 μM LNF, 24 h, DMSO = 100%
[9] = test system: SARS-CoV-2 BA.4.6 (Omicron); conditions: VeroE6, 10 μM LNF, 24 h, DMSO = 100%
[10] = test system: SARS-CoV-2 spike protein–mediated cell-cell fusion (Wuhan); conditions: 48 h
[11] = test system: SARS-CoV-2 spike protein–mediated cell-cell fusion (B.1.1.7); conditions: 48 h

## NC(=O)N1CCC(CC(=O)N2CCC([C@H]3c4ncc(Br)cc4CCc4cc(Cl)cc(Br)c43)CC2)CC1 [LNF, lonafarnib]
[1]
  Max %: 100.0%
[1]; Calu-3, 24 h, 24 h, read-out: EC50
  EC50: 3.17 µM
[1]; Huh-7, 24 h, 24 h, read-out: EC50
  EC50: 4.16 µM
[1]; Huh-7, read-out: EC50
  EC50: 4.2 µM
[1]; read-out: EC50 values, range over cell lines
  EC50: 1.5 to 4.16 µM
[1]; read-out: EC50
  EC50: 3.3 µM
SARS-CoV-2-nLUC [2]
  selectivity index (SI = CC50/EC50): greater than 10
SARS-CoV-2-nLUC [2]; μM 0.39794, 24 h
  viral inhibition (EC50 curve data): 31.0378 and 31.6733 and 41.1788 and 40.0144
SARS-CoV-2-nLUC [2]; μM 1, 24 h
  viral inhibition (EC50 curve data): 85.1292 and 83.5424 and 87.1345 and 86.5675
SARS-CoV-2-nLUC [2]; Log[LNF} mM 0.09691
  Replication: 60.948 and 56.887 and 64.8083
SARS-CoV-2-nLUC [2]; Log[LNF} mM 0.39794
  Replication: 44.056 and 34.731 and 47.009
SARS-CoV-2-nLUC [2]; Log[LNF} mM 1
  Replication: 12.4102 and 12.97 and 12.6676
SARS-CoV-2-nLUC [2]; Log[LNF} mM -0.522879
  Replication: 64.2793 and 76.4681 and 101.013
SARS-CoV-2-nLUC [2]; Severe acute respiratory syndrome coronavirus 2, 24 h, Huh7.5A2T2, 24 h, Fig 1G, read-out: EC50
  EC50: 3.46 µM
SARS-CoV-2-nLUC [2]; Severe acute respiratory syndrome coronavirus 2, 24 h, VeroE6T2, 24 h, Fig 1G, read-out: EC50
  EC50: 2.24 µM
SARS-CoV-2-nLUC [2]; Severe acute respiratory syndrome coronavirus 2, Calu-3, 24 h, Calu3, 24 h, Fig 1G, read-out: EC50
  EC50: 3.11 µM
SARS-CoV-2-nLUC [2]; Severe acute respiratory syndrome coronavirus 2, Vero C1008, 24 h, VeroE6, 24 h, Fig 1G, Fig 5B, read-out: EC50
  EC50: 2.03 µM
SARS-CoV-2-nLUC [2]; Severe acute respiratory syndrome coronavirus 2, VeroE6, Huh7.5A2T2, VeroE6T2, Calu3, read-out: EC50 values, range over cell lines
  EC50: 2.03 to 3.46 µM
SARS-CoV-2-nLUC [2]; VeroE6, 24 h, Fig 1G, Fig 5B, read-out: EC50
  EC50: 2 µM
[3]; Fig 1B, 5 mM (printed)
  percentage of N-positive cells relative to DMSO: 45.291% and 39.2779% and 27.7255% and 32.1523% and 27.1799% and 44.2583% and 28.0879%
[3]; Fig 1B, 10 mM (printed)
  percentage of N-positive cells relative to DMSO: 6.293% and 7.566% and 7.349% and 6.272% and 7.2903% and 7.5535% and 6.442%
[3]; Fig 1C, 5 mM (printed)
  percentage of N-positive cells relative to DMSO: 10.1344% and 5.318% and 6.858% and 5.707% and 14.6837% and 5.046% and 43.0964%
[3]; Fig 1C, 10 mM (printed)
  percentage of N-positive cells relative to DMSO: 4.886% and 4.575% and 6.603% and 7.209% and 6.0224% and 5.548% and 4.54%
SARS-CoV-2 [4]; 10 μM, VeroE6 and Calu3
  reduction of viral genome copy number in infected cells: more than 90%
SARS-CoV-2 [4]; Fig 1D, 5 mM (printed)
  percentage genome copy number relative to DMSO: 15.7327% and 8.267% and 4.447%
SARS-CoV-2 [4]; Fig 1D, 10 mM (printed)
  percentage genome copy number relative to DMSO: 0.3388% and 0.169% and 0.1887%
SARS-CoV-2 [4]; Fig 1E, 5 mM (printed)
  percentage genome copy number relative to DMSO: 1.7284% and 12.0506% and 10.6523% and 4.939%
SARS-CoV-2 [4]; Fig 1E, 10 mM (printed)
  percentage genome copy number relative to DMSO: 0.1445% and 0.1282% and 0.2571% and 0.1291%
SARS-CoV-2 [5]
  effect on virus-induced CPE: rescued the infected cells from virus-induced CPE
SARS-CoV-2-nLUC [6]; Lonafarnib 2.5 uM
  Response: 71.2556 and 72.7427 and 61.8907
SARS-CoV-2-nLUC [6]; Lonafarnib 5 uM
  Response: 96.7703 and 97.5859 and 97.3674
SARS-CoV-2-nLUC [7]; Lonafarnib 0.15625 uM
  Response: 2.22 and 4.213 and 2.074
SARS-CoV-2-nLUC [7]; Lonafarnib 0.3125 uM
  Response: 1.244 and 2.405 and 2.249
SARS-CoV-2-nLUC [7]; Lonafarnib 0.625 uM
  Response: -2.027 and 1.3173 and 0.3833
SARS-CoV-2-nLUC [7]; Lonafarnib 1.25 uM
  Response: 5.206 and 5.033 and 2.62
SARS-CoV-2-nLUC [7]; Lonafarnib 2.5 uM
  Response: 26.488 and 26.5645 and 16.3468
SARS-CoV-2-nLUC [7]; Lonafarnib 5 uM
  Response: 76.2414 and 75.9942 and 62.6493
SARS-CoV-2 Wuhan
  % Genome: 8.96% and 1.08% and 1.45%
[8]
  % Genome: 3.11% and 3.81% and 4.35%
[9]
  % Genome: 1.73% and 1.25% and 0.58%
[10]; 0.3 (printed)
  relative luciferase signals: 83.8904 and 99.372 and 100.719 and 105.145
[10]; 1 (printed)
  relative luciferase signals: 76.0312 and 74.8493 and 82.9658 and 76.539
[10]; 3 (printed)
  relative luciferase signals: 82.9427 and 55.6651 and 51.5871 and 56.5775
[10]; 10 (printed)
  relative luciferase signals: 30.6993 and 29.5083 and 34.9918 and 28.4711
[11]; Conc-mM 0.3 (printed)
  relative luciferase signals: 87.1833 and 82.9457 and 81.1177 and 86.5186
[11]; Conc-mM 1 (printed)
  relative luciferase signals: 76.2725 and 76.052 and 86.6016 and 79.6419
